One assay addresses CDK-4/cyclinD1 (Homo sapiens, UniProt P11802). Kind of assay: CDK panel (Reaction Biology). Format: biochemical. The settings on record: tested at Reaction Biology, Inc.
The target of the next assay is CDK-5/P35 (Homo sapiens, UniProt Q00535). Nature of the assay: CDK panel (Reaction Biology). It is filed as biochemical. To be noted: tested at Reaction Biology, Inc.
In a further assay the target is CDK-2/cyclinA (Homo sapiens, UniProt P24941). Nature of the assay: CDK panel (Reaction Biology). To be noted: tested at Reaction Biology, Inc. It is filed as biochemical.
The target in a further assay is CDK-9/cyclinT1 (Homo sapiens, UniProt P50750). Kind of assay: CDK panel (Reaction Biology). Format: biochemical. To be noted: tested at Reaction Biology, Inc.
For the next assay, the system named is OVCA432. Nature of the assay: Antiproliferation assay, ovarian cancer cells. The settings on record: ovarian cancer cell proliferation. Format: cell-based.
For another assay, the system named is SKOV3. Nature of the assay: Antiproliferation assay, ovarian cancer cells. It is filed as cell-based. To be noted: Homo sapiens, SK-OV-3; ovarian cancer cell proliferation.
Assay [1] addresses T1, recombinant human His6-GSK-3β (Homo sapiens, UniProt P49841).
T1 construct: His6; purchased EMD Biosciences
Kind of assay: GSK-3β kinase assay, [γ32P] transfer to primed glycogen synthase peptide.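 Note: phosphate incorporation quantified by liquid scintillation counting of the filters.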 It is filed as biochemical. The settings on record: 10 μM ATP; 10 μM pGSM peptide; 30 minutes at 30° C.; read-out: IC50 (nM), GSK-3β inhibition.

A further assay concerns the target CDK-1/cyclinB (Homo sapiens, UniProt P06493). Nature of the assay: CDK panel (Reaction Biology). Format: biochemical. The settings on record: tested at Reaction Biology, Inc.
Another assay addresses CDK-3/cyclinE (Homo sapiens, UniProt Q00526). Kind of assay: biochemical.
Another assay addresses CDK-6/cyclinD3 (Homo sapiens, UniProt Q00534). Kind of assay: CDK panel (Reaction Biology). Format: biochemical. The settings on record: tested at Reaction Biology, Inc.
The next assay deals with CDK-2/cyclinE (Homo sapiens, UniProt P24941). Kind of assay: CDK-2/CyclinE inhibition (Reaction Biology). To be noted: tested at Reaction Biology, Inc. Format: biochemical.
In assay [2] the test system is M-17 cancer cells co-transfected with α-Syn and DAT. Nature of the assay: Neuroprotection against MPP+-mediated cell death, MTT assay. Format: cell-based. The settings on record: MPP+ 48 h, inhibitor 0.1-10,000 nM. An excerpt:
GSK-3β inhibitors are examined for their capacity to interfere with two of the regulated processes playing an important role in the MPP+-induced model (MPP+ is N-methyl-4-phenylpyridinium) of neurodegeneration: Tau phosphorylation at the PHF-1 binding site (PHF-Tau; epitope which belongs to AD-like Tau antigenicity) and α-Syn-induced toxicity. Compounds are screened in in vitro assays, where their neuroprotective effects to protect against MPP+-mediated cell death was estimated. The cell assays are conducted as follows: M-17 cancer cells are co-transfected with α-Syn and DAT at a 3:1 DNA mimicking that found in Substantia nigra ratio, as we have described previously (Wersinger, C., et al The FASEB journal 2003, 17, 2151-2153). Cells are treated with MPP^+ for 48 h in the absence and presence of increasing amounts of GSK-3β inhibitors [0.1-10,000 nM], and cell death was measured by MTT (Thiazolyl Blue Tetrazolium Bromide) assays. Under these conditions, MPP^+ caused ˜80% cell death.

The next assay has as its target CDK-5/P25 (Homo sapiens, UniProt Q00535). Kind of assay: CDK panel (Reaction Biology). Format: biochemical. To be noted: tested at Reaction Biology, Inc.

One compound from patent US8207216B2, “Benzofuran-3-yl(indol-3-yl) maleimides as potent GSK3 inhibitors” (The Board of Trustees of the University of Illinois, priority 2006, dated 2012) can be followed below.

Chain of CDK-1/cyclinB (P06493 whole entry, species assumed): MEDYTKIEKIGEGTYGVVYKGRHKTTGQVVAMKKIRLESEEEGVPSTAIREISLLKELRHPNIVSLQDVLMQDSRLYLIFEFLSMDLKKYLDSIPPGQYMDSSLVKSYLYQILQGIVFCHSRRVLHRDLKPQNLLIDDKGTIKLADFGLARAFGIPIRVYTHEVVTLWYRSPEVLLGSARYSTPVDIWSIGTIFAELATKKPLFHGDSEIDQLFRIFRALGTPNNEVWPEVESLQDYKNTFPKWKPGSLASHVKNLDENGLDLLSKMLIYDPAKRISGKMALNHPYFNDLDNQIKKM
Chain of CDK-1/cyclinB (P14635 whole entry partner, species assumed): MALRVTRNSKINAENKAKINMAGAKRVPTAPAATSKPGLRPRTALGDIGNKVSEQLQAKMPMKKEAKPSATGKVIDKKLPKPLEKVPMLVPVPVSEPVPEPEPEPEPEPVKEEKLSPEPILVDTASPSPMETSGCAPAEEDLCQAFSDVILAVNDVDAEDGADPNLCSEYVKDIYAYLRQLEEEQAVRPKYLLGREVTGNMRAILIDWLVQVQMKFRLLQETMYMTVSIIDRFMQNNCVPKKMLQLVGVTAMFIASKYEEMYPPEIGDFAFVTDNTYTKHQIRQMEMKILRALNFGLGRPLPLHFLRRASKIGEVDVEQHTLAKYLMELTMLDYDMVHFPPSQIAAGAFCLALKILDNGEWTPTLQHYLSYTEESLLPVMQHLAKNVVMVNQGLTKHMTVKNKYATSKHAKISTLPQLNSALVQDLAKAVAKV
Chain of CDK-9/cyclinT1 (P50750 whole entry, species assumed): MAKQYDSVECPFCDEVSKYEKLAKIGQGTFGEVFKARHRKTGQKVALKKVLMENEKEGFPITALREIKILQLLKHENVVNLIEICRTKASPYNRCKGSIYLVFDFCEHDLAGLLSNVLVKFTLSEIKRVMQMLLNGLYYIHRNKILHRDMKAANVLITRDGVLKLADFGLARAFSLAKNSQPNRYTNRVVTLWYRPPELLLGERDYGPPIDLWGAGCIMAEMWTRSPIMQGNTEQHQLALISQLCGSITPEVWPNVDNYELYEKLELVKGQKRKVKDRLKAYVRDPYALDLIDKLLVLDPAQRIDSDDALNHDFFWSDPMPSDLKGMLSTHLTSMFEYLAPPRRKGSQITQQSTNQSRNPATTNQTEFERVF
Chain of CDK-9/cyclinT1 (O60563 whole entry partner, species assumed): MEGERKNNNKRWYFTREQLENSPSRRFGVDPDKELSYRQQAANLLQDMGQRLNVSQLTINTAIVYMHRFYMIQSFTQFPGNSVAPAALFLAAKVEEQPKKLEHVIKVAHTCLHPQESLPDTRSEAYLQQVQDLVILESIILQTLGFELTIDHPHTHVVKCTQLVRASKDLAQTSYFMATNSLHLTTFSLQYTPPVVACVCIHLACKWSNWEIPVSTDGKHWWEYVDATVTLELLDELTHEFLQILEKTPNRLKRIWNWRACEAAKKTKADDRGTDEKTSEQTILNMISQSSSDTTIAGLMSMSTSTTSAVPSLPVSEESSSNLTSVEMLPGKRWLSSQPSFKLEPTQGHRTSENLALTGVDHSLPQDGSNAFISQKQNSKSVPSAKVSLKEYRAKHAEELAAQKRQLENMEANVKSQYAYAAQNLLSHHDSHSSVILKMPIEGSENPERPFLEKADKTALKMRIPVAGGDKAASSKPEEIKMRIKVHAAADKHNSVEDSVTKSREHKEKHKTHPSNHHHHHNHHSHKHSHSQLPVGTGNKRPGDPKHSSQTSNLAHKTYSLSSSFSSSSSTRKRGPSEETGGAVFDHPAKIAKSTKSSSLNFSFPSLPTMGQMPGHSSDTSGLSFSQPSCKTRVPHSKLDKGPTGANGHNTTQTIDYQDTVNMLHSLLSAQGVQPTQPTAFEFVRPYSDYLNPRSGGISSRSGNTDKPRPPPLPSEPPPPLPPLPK
Chain of CDK-5/P25 (Q00535 whole entry, species assumed): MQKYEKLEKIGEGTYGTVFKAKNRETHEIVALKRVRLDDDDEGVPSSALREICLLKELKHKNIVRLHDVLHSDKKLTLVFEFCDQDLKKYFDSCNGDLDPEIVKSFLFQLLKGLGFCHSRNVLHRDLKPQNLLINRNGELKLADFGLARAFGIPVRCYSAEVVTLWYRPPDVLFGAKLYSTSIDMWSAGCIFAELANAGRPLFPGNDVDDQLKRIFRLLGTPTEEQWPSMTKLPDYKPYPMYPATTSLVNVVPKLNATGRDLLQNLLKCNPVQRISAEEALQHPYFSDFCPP
Chain of CDK-5/P25 (Q15078 99-307 partner limits assumed, species assumed): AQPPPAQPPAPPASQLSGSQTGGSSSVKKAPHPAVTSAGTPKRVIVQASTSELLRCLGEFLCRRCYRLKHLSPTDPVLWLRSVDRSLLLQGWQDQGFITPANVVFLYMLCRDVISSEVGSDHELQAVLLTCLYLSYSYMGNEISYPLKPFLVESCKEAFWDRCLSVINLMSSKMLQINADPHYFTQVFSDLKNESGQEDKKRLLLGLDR
Chain of CDK-5/P35 (Q00535 whole entry, species assumed): as the sequence (Q00535 whole entry, species assumed) above
Chain of CDK-5/P35 (Q15078 2-307 partner limits assumed, species assumed): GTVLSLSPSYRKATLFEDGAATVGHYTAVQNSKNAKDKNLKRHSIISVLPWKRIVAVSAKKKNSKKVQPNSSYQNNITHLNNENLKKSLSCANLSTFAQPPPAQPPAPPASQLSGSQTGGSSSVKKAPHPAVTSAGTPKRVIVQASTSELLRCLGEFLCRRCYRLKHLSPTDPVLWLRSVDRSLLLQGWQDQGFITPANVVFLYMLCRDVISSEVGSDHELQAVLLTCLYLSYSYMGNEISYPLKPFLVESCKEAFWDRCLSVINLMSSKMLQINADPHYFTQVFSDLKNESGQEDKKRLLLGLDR
T1 sequence (P49841 whole entry): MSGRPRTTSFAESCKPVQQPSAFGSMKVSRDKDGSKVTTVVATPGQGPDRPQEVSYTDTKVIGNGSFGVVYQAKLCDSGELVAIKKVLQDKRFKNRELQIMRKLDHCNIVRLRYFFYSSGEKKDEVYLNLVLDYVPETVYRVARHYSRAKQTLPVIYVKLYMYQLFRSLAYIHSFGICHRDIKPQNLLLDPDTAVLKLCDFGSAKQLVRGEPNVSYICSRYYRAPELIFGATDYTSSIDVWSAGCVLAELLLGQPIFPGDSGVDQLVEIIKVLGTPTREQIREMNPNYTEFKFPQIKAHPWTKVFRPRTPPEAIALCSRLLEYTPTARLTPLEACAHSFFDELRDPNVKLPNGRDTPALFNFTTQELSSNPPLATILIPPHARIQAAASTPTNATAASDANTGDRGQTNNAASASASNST
Chain of CDK-6/cyclinD3 (Q00534 whole entry, species assumed): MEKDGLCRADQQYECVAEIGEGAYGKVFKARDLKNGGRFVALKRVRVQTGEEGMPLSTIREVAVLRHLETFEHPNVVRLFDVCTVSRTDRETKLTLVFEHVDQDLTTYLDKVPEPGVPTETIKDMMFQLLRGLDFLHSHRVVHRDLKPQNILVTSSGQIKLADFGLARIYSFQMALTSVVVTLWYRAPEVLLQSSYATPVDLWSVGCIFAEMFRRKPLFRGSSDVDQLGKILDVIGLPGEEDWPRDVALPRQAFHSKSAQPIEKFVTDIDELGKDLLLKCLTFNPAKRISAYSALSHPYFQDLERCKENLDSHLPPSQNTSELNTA
Chain of CDK-6/cyclinD3 (P30281 whole entry partner, species assumed): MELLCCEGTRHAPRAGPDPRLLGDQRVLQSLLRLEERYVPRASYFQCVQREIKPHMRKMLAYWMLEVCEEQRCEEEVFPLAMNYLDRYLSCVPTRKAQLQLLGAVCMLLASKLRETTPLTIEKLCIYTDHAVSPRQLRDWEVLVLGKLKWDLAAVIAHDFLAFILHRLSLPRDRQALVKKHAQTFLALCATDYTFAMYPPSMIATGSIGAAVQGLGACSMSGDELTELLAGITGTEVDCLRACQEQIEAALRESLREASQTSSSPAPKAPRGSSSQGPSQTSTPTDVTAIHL
Chain of CDK-4/cyclinD1 (P11802 whole entry, species assumed): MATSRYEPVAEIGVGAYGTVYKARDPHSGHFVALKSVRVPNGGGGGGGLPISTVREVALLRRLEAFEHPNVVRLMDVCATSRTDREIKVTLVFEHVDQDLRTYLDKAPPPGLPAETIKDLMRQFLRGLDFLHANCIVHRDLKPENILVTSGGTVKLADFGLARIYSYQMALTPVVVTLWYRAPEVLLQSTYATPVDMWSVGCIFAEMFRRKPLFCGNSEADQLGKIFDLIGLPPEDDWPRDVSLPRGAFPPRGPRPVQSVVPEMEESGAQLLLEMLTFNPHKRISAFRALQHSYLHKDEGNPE
Chain of CDK-4/cyclinD1 (P24385 whole entry partner, species assumed): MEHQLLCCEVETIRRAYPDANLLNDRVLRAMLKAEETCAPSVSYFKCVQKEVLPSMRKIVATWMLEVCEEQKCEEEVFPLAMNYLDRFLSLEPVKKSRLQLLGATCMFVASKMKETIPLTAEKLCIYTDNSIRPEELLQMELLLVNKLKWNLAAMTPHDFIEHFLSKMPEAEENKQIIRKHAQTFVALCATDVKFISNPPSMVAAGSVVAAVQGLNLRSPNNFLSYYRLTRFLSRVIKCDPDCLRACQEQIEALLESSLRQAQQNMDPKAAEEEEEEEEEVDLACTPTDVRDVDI

As for `COc1cccc2c(C3=C(c4cn(C)c5cc(Cl)c(F)cc45)C(=O)NC3=O)coc12` [Compound 15, 3-(6-Chloro-5-fluoro-1-methyl-1H-indol-3-yl)-4-(7-methoxy-benzofuran-3-yl)-pyrrole-2,5-dione], the IC50 is 59.5 µM on CDK-4/cyclinD1; 61.6 µM at CDK-5/P35; 27.2 µM on CDK-2/cyclinA; over 100 µM against CDK-9/cyclinT1; 10.7 µM with OVCA432; 42.7 µM with SKOV3. In addition, the IC50 in assay [1] was 260 ± 32 nM; on CDK-1/cyclinB, 46.2 µM; on CDK-3/cyclinE, over 100 µM; on CDK-6/cyclinD3, 165 µM; on CDK-2/cyclinE, 99000 nM; against CDK-5/P25 it was 108 µM. Also, the “Neuroprotection against MPP+ (percent cell recovery, FIG. 2)” value in [2] is recorded as “neuroprotection of the cells”.

One may read the IC50 as the point on the concentration scale where inhibition reaches its midpoint.
